According to the RepoRT retention time repository (doi:10.1016/j.jchromb.2020.122105):

Experiments:
Conditions in all cases: stereoisomer not certain
[1] = RP, Waters CORTECS T3, 100 × 2.1 mm, 2.7 µm, 0.3 mL/min, estimated dead time 0.73 min; A: water + 0.1% formic acid, pH 3; B: methanol + 0.1% formic acid, pH 3; gradient (min/%B) 0/5 5/5 25/95 25.1/100 35/100 35.1/5 45/5
[2] = RP, Waters ACQUITY UPLC BEH C18, 100 × 2.1 mm, 1.7 µm, 0.1 mL/min, estimated dead time 2.2 min; A: water + 0.1% formic acid, pH 3; B: methanol + 0.1% formic acid, pH 3; gradient (min/%B) 0/5 5/5 25/100 30/100 30.1/5 35/5
[3] = RP, Waters CORTECS T3, 100 × 2.1 mm, 2.7 µm, 0.25 mL/min, estimated dead time 0.88 min; A: water + 0.1% formic acid, pH 3; B: methanol + 0.1% formic acid, pH 3; gradient (min/%B) 0/0 1/0 6/5 30/100 35/100 35.1/0 40/0
[4] = RP, Waters CORTECS T3, 100 × 2.1 mm, 2.7 µm, 0.3 mL/min, estimated dead time 0.73 min; A: water + 0.1% formic acid, pH 3; B: methanol + 0.1% formic acid, pH 3; gradient (min/%B) 0/5 5/5 25/100 30/100 30.1/5 35/5
[5] = RP, Waters CORTECS T3, 100 × 2.1 mm, 2.7 µm, 0.1 mL/min, estimated dead time 2.2 min; A: water + 0.1% formic acid, pH 3; B: methanol + 0.1% formic acid, pH 3; gradient (min/%B) 0/0 1/0 6/5 30/100 35/100 35.1/0 40/0
[6] = RP, Waters ACQUITY UPLC BEH C18, 100 × 2.1 mm, 1.7 µm, 0.1 mL/min, estimated dead time 2.2 min; A: water + 0.1% formic acid, pH 3; B: methanol + 0.1% formic acid, pH 3; gradient (min/%B) 0/5 5/5 25/95 25.1/100 35/100 35.1/5 45/5
[7] = RP, Waters CORTECS T3, 100 × 2.1 mm, 2.7 µm, 0.1 mL/min, estimated dead time 2.2 min; A: water + 0.1% formic acid, pH 3; B: methanol + 0.1% formic acid, pH 3; gradient (min/%B) 0/5 5/5 25/95 25.1/100 35/100 35.1/5 45/5
[8] = RP, Waters CORTECS T3, 100 × 2.1 mm, 2.7 µm, 0.3 mL/min, estimated dead time 0.73 min; A: water + 0.1% formic acid, pH 3; B: methanol + 0.1% formic acid, pH 3; gradient (min/%B) 0/0 1/0 6/5 30/100 35/100 35.1/0 40/0
[9] = RP, Waters CORTECS T3, 100 × 2.1 mm, 2.7 µm, 0.15 mL/min, estimated dead time 1.5 min; A: water + 0.1% formic acid, pH 3; B: methanol + 0.1% formic acid, pH 3; gradient (min/%B) 0/0 1/0 6/5 30/100 35/100 35.1/0 40/0
[10] = RP, Waters CORTECS T3, 100 × 2.1 mm, 2.7 µm, 0.3 mL/min, estimated dead time 0.73 min; A: water + 0.1% formic acid, pH 3; B: methanol + 0.1% formic acid, pH 3; gradient (min/%B) 0/0 5/0 25/100 30/100 30.1/0 35/0
[11] = RP, Waters ACQUITY UPLC BEH C18, 100 × 2.1 mm, 1.7 µm, 0.1 mL/min, estimated dead time 2.2 min; A: water + 0.1% formic acid, pH 3; B: methanol + 0.1% formic acid, pH 3; gradient (min/%B) 0/5 5/5 25/95 25.1/100 35/100 35.1/5 45/5; remark: listed apart in the source
[12] = RP, Waters CORTECS T3, 100 × 2.1 mm, 2.7 µm, 0.2 mL/min, estimated dead time 1.1 min; A: water + 0.1% formic acid, pH 3; B: methanol + 0.1% formic acid, pH 3; gradient (min/%B) 0/0 1/0 6/5 30/100 35/100 35.1/0 40/0
[13] = RP, Waters CORTECS T3, 100 × 2.1 mm, 2.7 µm, 0.2 mL/min, estimated dead time 1.1 min; A: water + 0.045% formic acid + 0.11% ammonium hydroxide, pH 7; B: methanol; gradient (min/%B) 0/5 5/5 25/95 25.1/100 35/100 35.1/5 45/5
[14] = RP, Waters ACQUITY UPLC BEH C18, 100 × 2.1 mm, 1.7 µm, 0.1 mL/min, estimated dead time 2.2 min; A: water + 0.045% formic acid + 0.11% ammonium hydroxide, pH 7; B: methanol; gradient (min/%B) 0/5 5/5 25/95 25.1/100 35/100 35.1/5 45/5
[15] = RP, Waters ACQUITY UPLC BEH C18, 100 × 2.1 mm, 1.7 µm, 0.2 mL/min, estimated dead time 1.1 min; A: water + 0.025% formic acid + 20 mM ammonium acetate + 0.055% ammonium hydroxide, pH 7; B: methanol; gradient (min/%B) 0/5 5/5 25/100 30/100 30.1/5 35/5
[16] = RP, Waters CORTECS T3, 100 × 2.1 mm, 2.7 µm, 0.2 mL/min, estimated dead time 1.1 min; A: water + 0.1% formic acid, pH 3; B: methanol + 0.1% formic acid, pH 3; gradient (min/%B) 0/0 1/0 6/5 30/100 35/100 35.1/0 40/0; remark: listed apart in the source
[17] = RP, Waters ACQUITY UPLC BEH C18, 100 × 2.1 mm, 1.7 µm, 0.2 mL/min, estimated dead time 1.1 min; A: water + 0.025% formic acid + 20 mM ammonium acetate + 0.055% ammonium hydroxide, pH 7; B: methanol; gradient (min/%B) 0/5 5/5 25/100 30/100 30.1/5 35/5; remark: listed apart in the source
[18] = RP, Waters CORTECS T3, 100 × 2.1 mm, 2.7 µm, 0.25 mL/min, estimated dead time 0.88 min; A: water + 0.1% formic acid, pH 3; B: methanol + 0.1% formic acid, pH 3; gradient (min/%B) 0/5 5/5 25/95 25.1/100 35/100 35.1/5 45/5
[19] = RP, Waters ACQUITY UPLC BEH C18, 100 × 2.1 mm, 1.7 µm, 0.2 mL/min, estimated dead time 1.1 min; A: water + 0.1% formic acid, pH 3; B: methanol + 0.1% formic acid, pH 3; gradient (min/%B) 0/5 5/5 25/100 30/100 30.1/5 35/5
[20] = RP, Waters CORTECS T3, 100 × 2.1 mm, 2.7 µm, 0.3 mL/min, estimated dead time 0.73 min; A: water + 0.1% formic acid, pH 3; B: methanol + 0.1% formic acid, pH 3; gradient (min/%B) 0/0 1/0 6/5 30/100 35/100 35.1/0 40/0; remark: listed apart in the source
[21] = RP, Waters ACQUITY UPLC BEH C18, 100 × 2.1 mm, 1.7 µm, 0.1 mL/min, estimated dead time 2.2 min; A: water + 0.1% formic acid, pH 3; B: methanol + 0.1% formic acid, pH 3; gradient (min/%B) 0/5 5/5 25/95 25.1/100 35/100 35.1/5 45/5; remark: listed apart in the source
[22] = HILIC, Merck SeQuant ZIC-HILIC, 150 × 2.1 mm, 5 µm, 0.75 mL/min, estimated dead time 0.44 min; A: water + 0.1% acetic acid + 10 mM ammonium acetate, pH 4; B: 5% water + 95% acetonitrile + 0.1% acetic acid + 10 mM ammonium acetate, pH 4; gradient (min/%B) 0/95 5/95 20/57 25/57 30/95 40/95
[23] = RP, Waters CORTECS T3, 100 × 2.1 mm, 2.7 µm, 0.15 mL/min, estimated dead time 1.5 min; A: water + 0.1% formic acid, pH 3; B: methanol + 0.1% formic acid, pH 3; gradient (min/%B) 0/5 5/5 25/95 25.1/100 35/100 35.1/5 45/5
[24] = RP, Waters CORTECS T3, 100 × 2.1 mm, 2.7 µm, 0.3 mL/min, estimated dead time 0.73 min; A: water + 0.1% formic acid, pH 3; B: methanol + 0.1% formic acid, pH 3; gradient (min/%B) 0/0 5/0 25/100 30/100 30.1/0 35/0; remark: listed apart in the source
[25] = RP, Thermo Scientific Hypercarb, 150 × 2.1 mm, 5 µm, 0.1 mL/min, estimated dead time 3.3 min; A: water + 0.1% formic acid, pH 3; B: methanol + 0.1% formic acid, pH 3; gradient (min/%B) 0/5 5/5 20/100 35/100 35.1/5 45/5
[26] = HILIC, Merck SeQuant ZIC-HILIC, 150 × 2.1 mm, 5 µm, 0.75 mL/min, estimated dead time 0.44 min; A: water + 10 mM ammonium formate, pH 6; B: 5% water + 95% acetonitrile + 10 mM ammonium formate, pH 6; gradient (min/%B) 0/95 5/95 20/57 25/57 30/95 40/95

| SMILES | LC retention time [1] [min] | LC retention time [2] [min] | LC retention time [3] [min] | LC retention time [4] [min] | LC retention time [5] [min] | LC retention time [6] [min] | LC retention time [7] [min] | LC retention time [8] [min] | LC retention time [9] [min] | LC retention time [10] [min] | LC retention time [11] [min] | LC retention time [12] [min] | LC retention time [13] [min] | LC retention time [14] [min] | LC retention time [15] [min] | other results |
| --- | --- | --- | --- | --- | --- | --- | --- | --- | --- | --- | --- | --- | --- | --- | --- | --- |
| NC(Cc1ccc(Oc2cc(I)c(O)c(I)c2)c(I)c1)C(=O)O (stereo not given) [3,3',5'-TRIIODOTHYRONINE] | 17.9 | 21.6 | 20.8 | 17.3 | 19.1 | 22.2 | 21.8 | 20.2 | 22.5 | 17.9 | 22.2 | 21.4 |  |  |  |  |
| O=C(O)c1ccc(=O)[nH]c1 [6-HYDROXYNICOTINATE] | 2.17 | 6.36 | 4.17 | 2.27 | 3.28 | 2.75 | 6.46 | 3.45 | 6.98 | 3.6 | 6.29 | 5.13 |  |  |  |  |
| C=CC1=C(C)C(C=c2[nH]c(=Cc3[nH]c(C=C4NC(=O)C(C)=C4C=C)c(C)c3CCC(=O)O)c(CCC(=O)O)c2C)=NC1=O [BILIVERDIN] | 19.9 | 22.8 | 22.9 |  | 21 | 23.5 | 23.8 | 22.6 | 24.7 |  | 23.5 | 23.5 | 20.9 | 23.4 | 19.9 |  |
| O=C(O)CCCCC1SCC2NC(=O)NC21 (stereo not given) [BIOTIN] |  | 15.2 |  | 10.7 | 12.1 |  | 15.3 |  | 14.9 | 11.7 | 15.5 |  | 1.35 |  | 6.2 | LC retention time [16]: 13.7 min; LC retention time [17]: 3.98 min; LC retention time [18]: 11.4 min; LC retention time [19]: 12.1 min; LC retention time [20]: 12.3 min; LC retention time [21]: 15.5 min; LC retention time [22]: 8.19 min; LC retention time [23]: 13.3 min; LC retention time [24]: 11.7 min; LC retention time [25]: 30.7 min; LC retention time [26]: 7.34 min |
| Cn1c(=O)c2c(ncn2C)n(C)c1=O [CAFFEINE] | 10.2 | 14.4 | 12.2 | 10.1 | 11.5 | 14.6 | 14.7 | 11.7 | 14.2 | 11.1 | 14.6 | 13 | 11.6 | 14.6 | 11.3 |  |
| Nc1nc2nc[nH]c2c(=O)[nH]1 [GUANINE] | 2.38 | 2.74 | 5.85 | 2.45 | 3.48 | 2.66 | 2.71 |  | 9.27 |  | 2.66 | 6.86 |  |  |  |  |
| CCCCCCCCCCCCCCCC(O)C(N)CO (stereo not given) [SPHINGANINE] | 23 | 26.4 | 26.6 | 22.2 | 24.1 | 27.9 | 26.6 | 26.1 | 28.2 | 22.4 | 28.1 | 27.4 |  | 29.1 |  |  |
